Reference: patent US9393213B2, “Nanocrystals, compositions, and methods that aid particle transport in mucus” (Kala Pharmaceuticals, Inc., priority 2012, dated 2016)

Legend:
[1] = format: physicochemical
Source text: Tenofovir (TFV) is a potent antiviral drug used to treat infectious diseases. Due to the fact that tenofovir (TFV) is highly water soluble, a method was developed for formulating mucus-penetrating particles of tenofovir. […] In order to decrease the water solubility of TFV, interactions between cations and nucleotides/nucleotide analogs were exploited. TFV interacts very strongly with zinc cations (Zn), via the phosphonate group and the purine ring structure. This interaction with zinc causes TFV precipitation into crystals that can be stabilized with the coatings described herein, halting aggregation and determining the crystal surface properties. Additionally, Zn is naturally present in vaginal fluid and has known antimicrobial properties recently extended to include anti-HIV activity.

[2] = test system: IL-1β, IL-1α, TNF-α, and IL-6; test: Cytokine concentrations in cervicovaginal lavage after daily vaginal treatment for 7 days; details: day 8 after daily dosing for seven days
Method: Because our ultimate goal was to test MPPs for protection against HSV-2, we compared an MPP formulation containing acyclovir monophosphate (ACVp) to N9, HEC placebo gel, PBS, and a gel vehicle (TFV vehicle) used in recent tenofovir clinical trials. Nanoparticle and control formulations were administered vaginally to Depo Provera-treated mice daily for seven days.
Twenty μL of each test agent was administered intravaginally to the DP mouse model once-a-day for seven (7) days. […] On the eighth day, each mouse was lavaged twice with 50 μL of PBS. Each lavage sample was diluted with an additional 200 μL of PBS and centrifuged to remove the mucus plug. Supernatant (200 μL) was removed and split into 50 μL for each of the four (IL-1β, IL-1α, TNF-α, and IL-6) Quantikine ELISA kits (R&D Systems, Inc.). ELISAs were conducted per the manufacturer's instructions.

[3] = Acute vaginal toxicity by H&E staining 24 h after intravaginal administration; format: in vivo, DP mice
Method: Standard hematoxylin and eosin (H&E) staining was used to investigate potential toxic effects of intravaginally administered nanoparticles. […] The same (BD-) MPPs and (BD-) CPs that were used for distribution and retention studies were tested for toxicity.
Five μL of particles or control solutions were administered intravaginally to the DP mouse model. After 24 h, whole cervicovaginal tracts were obtained and fixed in 4% paraformaldehyde solution for 24 h. Tissues were placed in 70% ethanol and taken to the Johns Hopkins Reference Histology Laboratory for paraffin embedding and standard H&E staining.

HSV-2 strain G = test: HSV-2 vaginal challenge in mice; format: in vivo, CF-1 mice; details: intravaginal 30 min before challenge
Method: Female 6-8 week old CF-1 mice were subcutaneously injected with medroxyprogesterone acetate, and one week later received 20 μl of test agent or PBS intravaginally with a fire-polished positive displacement capillary pipette (Wiretrol, Drummond Scientific). Thirty minutes later, mice were challenged with 10 uL of inoculum containing HSV-2 strain G (ATCC #VR-734, 2.8×10^7 TCID50 per mL). […] Mice were assessed for infection three days later after inoculation by culturing a PBS vaginal lavage on human foreskin fibroblasts (Diagnostic Hybrids, MRHF Lot #440318W), as described previously (R. A. Cone, T. Hoen, X. Wong, R. Abusuwwa, D. J. Anderson, T. R. Moench, Vaginal microbicides: detecting toxicities in vivo that paradoxically increase pathogen transmission. BMC Infect Dis 6, 90 (2006)).
Both the drug and the virus were administered intravaginally.
ACVp nanoparticles were formulated with the same muco-inert coating used for all other studies. […] To study the distribution and retention of nanoparticles at the vaginal mucosal surface and the effects of repeated dosing, 6-8 week old CF-1 mice (Harlan) were used. Mice were housed in a reversed light cycle facility (12 h light/12 h dark). […] Journal of Virology 79, 3107-3116 (2005)).
All data are presented as a mean with standard error of the mean (SEM) indicated. Statistical significance was determined by a two-tailed, Student's t-test (α=0.05) assuming unequal variance. In the case of HSV-2 challenge, statistical significance was determined using Fisher's exact test, two-tailed distribution.

HSV-2 = details: single vaginal pretreatment with 50 mg/mL (5%); guinea pigs; cited from earlier work
[4] = Source text: [formula] where <Vmean> is the ensemble average trajectory-mean velocity, Vmean is the velocity of an individual particle averaged over its trajectory, the sample is the particle of interest, the negative control is a 200 nm carboxylated polystyrene particle, and the positive control is a 200 nm polystyrene particle densely PEGylated with 2 kDa-5 kDa PEG.
For instance, a fluorescent microscope equipped with a CCD camera can be used to capture 15 s movies at a temporal resolution of 66.7 ms (15 frames/s) under 100× magnification from several areas within each sample for each type of particles: sample, negative control, and positive control.
In a typical experiment, ≦0.5 uL of a nanosuspension (diluted if necessary to the surfactant concentration of ˜1%) was added to 20 μl of fresh CVM along with controls. […] Using a fluorescent microscope equipped with a CCD camera, 15 s movies were captured at a temporal resolution of 66.7 ms (15 frames/s) under 100× magnification from several areas within each sample for each type of particles: sample (pyrene), negative control, and positive control (natural blue fluorescence of pyrene allowed observing of pyrene nanoparticles separately from the controls). […] To enable easy comparison between different samples and normalize velocity data with respect to natural variability in penetrability of CVM samples, relative sample velocity <Vmean>rel, was determined according to the formula shown in Equation 1.
CVM was collected by inserting a Softcup® menstrual collection cup into the vaginal tract as described by the product literature for between 30 seconds and 2 minutes. After removal the CVM was then collected from the Softcup® by gentle centrifugation at ˜30×G to ˜120×G in a 50 mL centrifuge tube. In Example 1, CVM was used undiluted and fresh (stored for no longer than 7 days under refrigerated conditions). Barrier and transport of all CVM samples used in Example 1 were verified with negative (200 nm carboxylated polystyrene particles) and positive (200 nm polystyrene particles modified with PEG 5K) controls. In Example 2, CVM was lyophilized and reconstituted. In Example 2, mucus was frozen at −50° C. and then lyophilized to dryness. Samples were then stored at −50° C. Before use, the mucus was reconstituted by grinding the solid into a fine powder using a mortar and pestle followed by water addition to a final volume equal to the original volume to 2 times the original volume. The reconstituted mucus was then incubated at 4° C. for 12 hours and used as described in Example 2. Barrier and transport of all CVM samples used in Example 2 were verified with negative (200 nm carboxylated polystyrene particles) and positive (F127 coated 200 nm polystyrene particles) controls.

## C[C@H](Cn1cnc2c(N)ncnc21)OCP(=O)(O)O [TFV, tenofovir]
[1]
  water solubility: at least 15 mg/mL

## Nonoxynol-9 [N9]
[2]
  IL-1α level in vaginal lavage: elevated
  IL-1β level in vaginal lavage: elevated
[3]
  inflammation in H&E-stained vaginal tissue: acute inflammation

## acyclovir monophosphate [Soluble ACV]
HSV-2 strain G; 1 mg/mL in PBS
  % Infected: 84.0%
HSV-2 strain G; 1 mg/mL in PBS, 25 mice
  # Infected: 21
HSV-2 strain G; 1 mg/mL in PBS, listed as Soluble ACVp
  % Infected: 84%
HSV-2 strain G; 1 mg/mL in PBS, listed as soluble ACVp
  % Infected: 84.0%
HSV-2 strain G; 10 mg/mL in PBS
  % Infected: 62.0%
HSV-2 strain G; 10 mg/mL in PBS, 100 mice
  # Infected: 62
HSV-2 strain G; 10 mg/mL in PBS, listed as Soluble ACVp
  % Infected: 62%
HSV-2 strain G; 10 mg/mL in PBS, listed as soluble ACVp
  % Infected: 62.0%
HSV-2 strain G; 10 mg/mL in Water
  % Infected: 69.3%
HSV-2 strain G; 10 mg/mL in Water, 75 mice
  # Infected: 52
HSV-2
  animals infected compared to controls: 70%

## Tyloxapol
[4]
  Sample (relative) <Vmean>rel: −0.02
  Sample <Vmean>: 0.42 um/s

## Tween 80
[4]
  Sample (relative) <Vmean>rel: 0.17
  Sample <Vmean>: 0.94 um/s
